Drawing on patent US10781184B2, “Substituted benzazinones as antibacterial compounds” (GlaxoSmithKline Intellectual Property Development Limited, priority 2015, dated 2020), this text covers MIC for 17 compounds.

Values after ≈ are worked out from the molar mass of the structure shown.

Experiment in all cases: Minimum Inhibitory Concentration Assay (broth microdilution, CLSI)
What all share (assay type): cell-based

Assay [1] has as its system K. pneumoniae 1161486. The following applies: Klebsiella pneumoniae; strain 1161486, broth microdilution; read-out: K. pneumoniae 1161486 MIC. The method in brief:
(§1)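 CLSI broth microdilution for aerobic bacteria; compounds serially diluted in the recommended broth over a final range of 0.125–128 mcg/mL, final DMSO below 1%. MIC read as the lowest concentration inhibiting visible growth.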

Assay [2] relates to E. coli 7623. The following applies: Escherichia coli; strain 7623, broth microdilution; read-out: E. coli 7623 MIC. The method in brief: as §1
(In general: Broth dilution looks for growth in wells or tubes with falling amounts of substance.)

Assay [3] deals with P. aeruginosa PA01. As to conditions: Pseudomonas aeruginosa; strain PA01, broth microdilution; read-out: P. aeruginosa PA01 MIC. The method in brief: as §1

Usually MIC stands for the smallest concentration in the dilution series that meets the test's criterion for growth inhibition. As for `C[C@@](CCn1ccc2cc(-c3ccc(CNC4CC4)cc3F)ccc2c1=O)(C(=O)NO)S(C)(=O)=O` [Example 76, (2R)-4-(6-{4-[(cyclopropylamino)methyl]-2-fluorophenyl}-1-oxo-1,2-dihydroisoquinolin-2-yl)-N-hydroxy-2-methanesulfonyl-2-methylbutanamide], the results for the MIC in assay [1], in assay [2] and in assay [3] were 0.125 µg/mL (≈ 0.249 µM), less than 0.03 µg/mL and 0.5 µg/mL (≈ 0.997 µM), respectively.

Turning to `CN(C)N(C)Cc1ccc(-c2ccc3c(=O)n(CC[C@](C)(C(=O)NO)S(C)(=O)=O)ccc3c2)cc1` [Example 77, (2R)—N-hydroxy-2-methanesulfonyl-2-methyl-4-(1-oxo-6-{4-[(1,2,2-trimethylhydrazin-1-yl)methyl]phenyl}-1,2-dihydroisoquinolin-2-yl)butanamide], the figures for the MIC in assay [1], in assay [2] and in assay [3] were 0.25 µg/mL (≈ 0.499 µM), 0.125 µg/mL (≈ 0.25 µM) and 2 µg/mL (≈ 4 µM), respectively.

With `CONCc1ccc(-c2ccc3c(=O)n(CC[C@](C)(C(=O)NO)S(C)(=O)=O)ccc3c2)cc1` [Example 78, (2R)—N-hydroxy-2-methanesulfonyl-4-(6-{4-[(methoxyamino)methyl]phenyl}-1-oxo-1,2-dihydroisoquinolin-2-yl)-2-methylbutanamide], the MIC in assay [1] amounted to 0.125 µg/mL (≈ 0.264 µM); in assay [2], 0.063 µg/mL (≈ 0.133 µM); in assay [3], 4 µg/mL (≈ 8.45 µM).

As to `CN(C)NCc1ccc(-c2ccc3c(=O)n(CC[C@](C)(C(=O)NO)S(C)(=O)=O)ccc3c2)cc1` [Example 79, (2R)-4-(6-{4-[(2,2-dimethylhydrazin-1-yl)methyl]phenyl}-1-oxo-1,2-dihydroisoquinolin-2-yl)-N-hydroxy-2-methanesulfonyl-2-methylbutanamide], the MIC in assay [1] worked out at 0.5 µg/mL (≈ 1.03 µM); in assay [2] it was 0.125 µg/mL (≈ 0.257 µM); in assay [3], 8 µg/mL (≈ 16.4 µM).

With `C[C@@](CCn1ccc2cc(-c3ccc(CCN4CCOCC4)cc3)ccc2c1=O)(C(=O)NO)S(C)(=O)=O` [Example 80, (2R)—N-hydroxy-2-methanesulfonyl-2-methyl-4-(6-{4-[2-(morpholin-4-yl)ethyl]phenyl}-1-oxo-1,2-dihdroisoquinolin-2-yl)butanamide], the MIC in assay [1] is 0.25 µg/mL (≈ 0.474 µM); in assay [2] it was 0.063 µg/mL (≈ 0.119 µM); in assay [3], 1 µg/mL (≈ 1.9 µM).

On to `C[C@@](CCn1ccc2cc(-c3ccc(CN4CCCC4=O)cc3)ccc2c1=O)(C(=O)NO)S(C)(=O)=O` [Example 81, (2R)—N-hydroxy-2-methanesulfonyl-2-methyl-4-(1-oxo-6-{4-[(2-oxopyrrolidin-1-yl)methyl]phenyl}-1,2-dihydroisoquinolin-2-yl)butanamide], for which the MIC in assay [1] is 0.5 µg/mL (≈ 0.977 µM); in assay [2], 0.25 µg/mL (≈ 0.489 µM); in assay [3], 1 µg/mL (≈ 1.95 µM).

With `CN(CCOc1ccc(-c2ccc3c(=O)n(CC[C@](C)(C(=O)NO)S(C)(=O)=O)ccc3c2)cn1)C1CC1.O=C(O)C(F)(F)F` [Example 82, (2R)-4-[6-(6-{2-[cyclopropyl(methyl)amino]ethoxy}pyridin-3-yl)-1-oxo-1,2-dihydroisoquinolin-2-yl]-N-hydroxy-2-methanesulfonyl-2-methylbutanamide], the MIC in assay [1] amounted to 0.25 µg/mL; in assay [2], 0.25 µg/mL; in assay [3] it was 4 µg/mL.

On to `COc1ccc(-c2ccc3c(=O)n(CC[C@](C)(C(=O)NO)S(C)(=O)=O)cc(F)c3c2)cc1` [Example 83, (2R)-4-[4-fluoro-6-(4-methoxyphenyl)-1-oxo-1,2-dihydroisoquinolin-2-yl]-N-hydroxy-2-methanesulfonyl-2-methylbutanamide], for which the MIC in assay [1] was 0.25 µg/mL (≈ 0.541 µM); in assay [2], less than 0.03 µg/mL; in assay [3], 8 µg/mL (≈ 17.3 µM).

Take `C[C@@](CCn1cc(F)c2cc(-c3ccccc3)ccc2c1=O)(C(=O)NO)S(C)(=O)=O` [Example 84, (2R)-4-(4-fluoro-1-oxo-6-phenyl-1,2-dihydroisoquinolin-2-yl)-N-hydroxy-2-methanesulfonyl-2-methylbutanamide]: the values for the MIC in assay [1], in assay [2] and in assay [3] were 0.25 µg/mL (≈ 0.578 µM), 0.5 µg/mL (≈ 1.16 µM) and 4 µg/mL (≈ 9.25 µM), respectively.

For `CN(C)Cc1ccc(-c2ccc3c(=O)n(CC[C@](C)(C(=O)NO)S(C)(=O)=O)cc(F)c3c2)cc1` [Example 85, (2R)-4-(6-{4-[(dimethylamino)methyl]phenyl}-4-fluoro-1-oxo-1,2-dihydroisoquinolin-2-yl)-N-hydroxy-2-methanesulfonyl-2-methylbutanamide], the MIC stood at 1 µg/mL (≈ 2.04 µM) in assay [1], 0.5 µg/mL (≈ 1.02 µM) in assay [2] and 4 µg/mL (≈ 8.17 µM) in assay [3].

As for `CCOc1ccc(-c2ccc3c(=O)n(CC[C@](C)(C(=O)NO)S(C)(=O)=O)cc(F)c3c2)cn1` [Example 86, (2R)-4-[6-(6-ethoxypyridin-3-yl)-4-fluoro-1-oxo-1,2-dihydroisoquinolin-2-yl]-N-hydroxy-2-methanesulfonyl-2-methylbutanamide], the MIC was 0.25 µg/mL (≈ 0.524 µM) in assay [1], less than 0.03 µg/mL in assay [2] and 16 µg/mL (≈ 33.5 µM) in assay [3].

In the case of `COc1ccc(-c2ccc3c(=O)n(CC[C@](C)(C(=O)NO)S(C)(=O)=O)cc(F)c3c2)cn1` [Example 87, (2R)-4-[4-fluoro-6-(6-methoxypyridin-3-yl)-1-oxo-1,2-dihdroisoquinolin-2-yl]-N-hydroxy-2-methanesulfonyl-2-methylbutanamide], the MIC came to 0.25 µg/mL (≈ 0.539 µM) in assay [1], 0.06 µg/mL (≈ 0.129 µM) in assay [2] and 8 µg/mL (≈ 17.3 µM) in assay [3].

Consider `COCCNCc1ccc(-c2ccc3c(=O)n(CC[C@](C)(C(=O)NO)S(C)(=O)=O)cc(F)c3c2)c(F)c1` [Example 88, (2R)-4-[4-fluoro-6-(2-fluoro-4-{[(2-methoxyethyl)amino]methyl}phenyl)-1-oxo-1,2-dihydroisoquinolin-2-yl]-N-hydroxy-2-methanesulfonyl-2-methylbutanamide], for which the MIC is 0.25 µg/mL (≈ 0.465 µM) in assay [1], 0.125 µg/mL (≈ 0.233 µM) in assay [2] and 2 µg/mL (≈ 3.72 µM) in assay [3].

Regarding `CN(C)c1ccc(-c2ccc3c(=O)n(CC[C@](C)(C(=O)NO)S(C)(=O)=O)cc(F)c3c2)cn1` [Example 90, (2R)-4-{6-[6-(dimethylamino)pyridin-3-yl]-4-fluoro-1-oxo-1,2-dihydroisoquinolin-2-yl}-N-hydroxy-2-methanesulfonyl-2-methylbutanamide], the figures for the MIC in assay [1], in assay [2] and in assay [3] were 1 µg/mL (≈ 2.1 µM), 0.063 µg/mL (≈ 0.132 µM) and 32 µg/mL (≈ 67.2 µM), respectively.

For the compound `C[C@@](CCN1CCc2cc(-c3ccc(CN4CCOCC4)cc3)ccc2C1=O)(C(=O)NO)S(C)(=O)=O` [Example 92, (2R)—N-hydroxy-2-methanesulfonyl-2-methyl-4-(6-{4-[(morpholin-4-yl)methyl]phenyl}-1-oxo-1,2,3,4-tetrahydroisoquinolin-2-yl)butanamide], the MIC in assay [1] worked out at 0.5 µg/mL (≈ 0.97 µM); in assay [2] it was 0.5 µg/mL (≈ 0.97 µM); in assay [3], 4 µg/mL (≈ 7.76 µM).

In the case of `C[C@@](CCn1ccc2cc(-c3ccc(CCO)cc3)ccc2c1=O)(C(=O)NO)S(C)(=O)=O` [Example 93, (2R)—N-hydroxy-4-{6-[4-(2-hydroxyethyl)phenyl]-1-oxo-1,2-dihydroisoquinolin-2-yl}-2-methanesulfonyl-2-methylbutanamide], the MIC in assay [1] was 0.125 µg/mL (≈ 0.273 µM); in assay [2], 0.063 µg/mL (≈ 0.137 µM); in assay [3] it was 0.5 µg/mL (≈ 1.09 µM).

In the case of `CN(C)CC(=O)OCCc1ccc(-c2ccc3c(=O)n(CC[C@](C)(C(=O)NO)S(C)(=O)=O)ccc3c2)cc1` [Example 94, 2-(4-{2-[(3R)-3-(hydroxycarbamoyl)-3-methanesulfonyl-3-methylpropyl]-1-oxo-1,2-dihydroisoquinolin-6-yl}phenyl)ethyl 2-(dimethylamino)acetate], the MIC was found to be 0.25 µg/mL (≈ 0.46 µM) in assay [1], 0.125 µg/mL (≈ 0.23 µM) in assay [2] and 2 µg/mL (≈ 3.68 µM) in assay [3].
